The text below walks through data of patent publication EP2077851B1, “A PHARMACEUTICAL COMPOSITION COMPRISING CORDYCEPIN FOR THE TREATMENT AND PREVENTION OF OBESITY” (priority 2006, dated 2008).

Where two headings read alike, the source gives them in different places.

The conditions of data set [1]: cited from earlier work.
The test system of the next data set is PPARγ. Description: Western blot analysis of protein expression in 3T3-L1 cells. As to conditions: FIG. 8. It is filed as cell-based. Here is the method:
(§1) Western blot analysis was performed in order to examine the effect of cordycepin on the expression of C/EBPα, PPARγ, and anti-leptin, the essential factors involved in adipogenesis and lipogenesis.
(§2) 3T3-L1 cells cultured in 6-well dishes were rinsed three times with ice-cold PBS, scraped into 0.5 ml of PBS, and centrifuged at 14,000 rpm for 1 min. Cell pellets were resuspended in 0.2 ml ice-cold RIPA buffer (50 mM Tris-HCl, pH 7.4, 150 mM NaCl, 1 mM EDTA, 1% NP 40, 0.25 % deoxycholate) and protease inhibitors (Complete Mini Protease Inhibitor Tablets, Roche, Indianapolis, IN). Suspensions were sheared through a 20-gauge needle, incubated on ice for 30 min and centrifuged at 14,000 rpm at 4°C for 20 min. Supernatants were collected and the protein concentration was determined using a BCA assay kit. Cell lysates were mixed with an equal volume of Laemmli SDS loading buffer (Bio-Rad Laboratories, Hercules, CA), equal amounts of lysate protein ([…]) were loaded onto SDS-PAGE, and electrophoresis was carried out before the protein was transferred to a nitrocellulose membrane (Bio-Rad Laboratories, Hercules, CA). The membranes were blocked for 1 h in PBS containing 0.05% Tween-20 (USB corp., Cleveland, USA) and 5% nonfat dry milk. The membranes were incubated with antibodies against C/EBPα, PPARγ (Santa Cruz, CA) and anti-leptin (Sigma) for 1 hour, followed by three 10 min washes in PBS/Tween-20. The blots were subsequently treated with appropriate secondary antibodies conjugated to horseradish peroxidase for 1 hour at room temperature, and washed with PBS-T three times for 10 min. To visualize reaction complexes, an enhanced chemiluminescence system (ECL, Amersham International plc, Little Chalfont Buckinghamshire, England) was used, and reaction complexes were exposed to X-ray film.
(Immunoblotting shows a protein as a band on a membrane.)

The test system of the next data set is C/EBPα. The data set is described as above. The class given is cell-based. As to conditions: FIG. 8. As to the method:
as §1, §2

For the next data set, the system named is anti-leptin. Described as above. The class given is cell-based. As to conditions: 32 µM, differentiated 3T3-L1 cells, FIG. 8. As to the method: as §1, §2
The test system of data set [2] is 3T3-L1 cells. Put plainly: Triacylglycerol synthesis in 3T3-L1 cells (intracellular triacylglycerol per unit weight of protein). The class given is cell-based. Here is the method:
A measurement was made to find the effect of cordycepin on the synthesis of triacylglycerol (TAG). First, the cells in each group were detached using a Tris-EDTA buffer and disrupted with an ultrasonicator. A calibration curve for a standard solution was made according to the protocol of a BCA protein assay kit. The cell lysates were diluted in the kit reagent and warmed at 37°C for 30 min. Then, within 10 min, the solutions were measured for absorbance at 562 nm to quantify protein. Separately, according to the protocol of a BCS triacylglycerol kit, the cell lysates were diluted in the kit reagent and warmed at 37°C for 10 min. Then, within 60 min, the absorbance of the solutions was measured at 550 nm against a reagent blank. The amount of intracellular triacylglycerol per unit weight of protein (µg/mg) was calculated according to a calculation formula.
For the preliminary investigation of the mode of action of cordycepin on differentiation and TAG synthesis, adenosine, one of several cordycepin homologues, was added to the submerged medium for differentiation at the time of initiating differentiation at the same molar concentration as cordycepin (32 µM).

For data set [3], the system named is 3T3-L1 cells. Description: Differentiation of 3T3-L1 fibroblast cells into adipocytes (oil red O staining). The class given is cell-based. Here is the method: Fibroblast cells (3T3-L1 cells) were cultured in 10 cm-culture dishes containing animal cell culture media (refer to Table 2, below) at 37°C in a 5% CO2 incubator, with the media replaced with fresh media every two or three days.
3T3-L1 cell line was purchased from the American Type Culture Collection (ATCC CL-173). The cells were grown and differentiated according to the protocol of Frost and Lane (Frost and Lane, 1985): 3T3-L1 preadipocytes were cultured in 100 mm plates containing a submerged medium for proliferation (DMEM supplemented with 10% BCS, 100 U/ml penicillin, and 100 µg/ml streptomycin) in an atmosphere of 5% CO2 at 37°C. When the cell become confluent, the cells were harvested, splitted in a 6-well plate to a cell number of 4.0×10^5 cells/ml and subsequently cultured until reaching confluence again. Two days after confluence, the cells were stimulated to differentiate into adipocytes by incubating for 2 days in the medium for stimulating differentiation (MSD, DMEM containing 1 µM DEX, 0.5 mM IBMX, and 10 µg/ml insulin), and maintained in the differentiated state in the medium for differentiation (MFD containing 10% BCS and 5 µg/ml insulin) for 7 days. MSD was freshly replaced every 48 hours and the comparison of the each medium composition used in this example was shown in Table 2.
Cordycepin was dissolved in the appropriate warm medium and added at the final concentration of 4, 16, and 32 µM.
Cells obtained in Example 1-1 were washed twice with PBS (pH 7.4), fixed with 10% formalin in PBS for 1 hour at room temperature and washed three times with distilled water. The cells were stained with filtered 0.5% oil red O for 10 min, and washed again with distilled water three times. The pictures of the stained cells were taken using an Olympus (CKX-41, Tokyo, Japan) microscope. The density of stained oil red O was measured using a spectrometer (DU-70, Beckman, Fullerton, CA) at 518 nm after the dye was extracted with propanol. […]

Where [4] appears, read: anti-obesity drugs, background knowledge.
The mark [5] stands for this setting: adenosine 32 µM, differentiated 3T3-L1 cells.

With `CC(N)Cc1ccccc1` (centres unmarked) [Amphetamine], the Side effect entry in data set [1] (in vivo) is given as “Addictive”.

For the compound `CC(C)CC(N(C)C)C1(c2ccc(Cl)cc2)CCC1` (centres unmarked) [Sibutramine], the Side effect result in data set [1] (setting [4]) was “Blood pressure increase, insomnia, xerostomia and vertigo. Prohibited to the patients with cardiovascular disease”.

Consider `NC1=NCC(c2ccccc2)O1` (centres unmarked) [Aminorex], for which the Side effect result in data set [1] (setting [4]) is given as “Pulmonary hypertension caused”.

For `CCCCCCCCCCC[C@@H](C[C@@H]1OC(=O)[C@H]1CCCCCC)OC(=O)[C@H](CC(C)C)NC=O` [Orlistat], the Side effect entry in data set [1] (setting [4]) is given as “Diarrhea, fatty stool, fecal incontinence”.

With `Nc1ncnc2c1ncn2[C@@H]1O[C@H](CO)C[C@H]1O` [cordycepin, 3'-deoxyadenosine], the “expression levels of PPARγ” value with PPARγ (32 µM, 3T3-L1 cells) is “inhibited”. Moreover, in the data set on C/EBPα (32 µM, 3T3-L1 cells), the “expression levels of C/EBPα” value is listed as “inhibited”. In addition, in the data set with anti-leptin, the “expression levels of anti-leptin” value is “inhibited”. For the same compound, the “synthesis of triacylglycerol in 3T3-L1 cells” value in the data set on 3T3-L1 cells [2] (cordycepin 4, 16 and 32 µM, FIG. 5) is “inhibits the synthesis of triacylglycerol in 3T3-L1 cells in a dose-dependent manner”. The “differentiation of 3T3-L1 cells into adipose cells” value in the data set on 3T3-L1 cells [3] (cordycepin 4, 16 and 32 µM, oil red O, 518 nm, FIG. 4) is given as “inhibits the differentiation of 3T3-L1 cells into adipose cells in a dose-dependent manner”. The “differentiation of 3T3-L1 cells into adipocytes” value in the data set with 3T3-L1 cells [3] (in the presence of 32 µM of cordycepin, FIG. 4) was “almost completely suppressed”.

For `Nc1ncnc2c1ncn2[C@@H]1O[C@H](CO)[C@@H](O)[C@H]1O` [adenosine], the “expression levels of PPARγ” value in the data set on PPARγ (setting [5]) is reported as “no significant effect”. Further, the C/EBPα level entry in the data set with C/EBPα (setting [5]) is given as “inhibited”. The “expression levels of anti-leptin” value in the data set on anti-leptin was “no significant effect”. Besides, in the data set on 3T3-L1 cells [2] (adenosine 32 µM added together with cordycepin 32 µM at initiation of differentiation, FIG. 7), the “inhibitory effect of cordycepin on TAG synthesis of 3T3-L1 cells” value was “suppressed”. The “inhibitory effect of cordycepin on differentiation of 3T3-L1 cells” value with 3T3-L1 cells [3] (adenosine 32 µM added together with cordycepin 32 µM at initiation of differentiation, FIG. 6) is “suppressed”.

For `CCNC(C)Cc1cccc(C(F)(F)F)c1` (centres unmarked) [Fenfluramine], the “Valvular dysfunction caused in persons administered in combination with other therapy” value in data set [1] (share of persons, sale prohibited in 1997) is “Valvular dysfunction caused in 35% of persons administered in combination with other therapy, sale prohibited in 1997”.

Regarding Thyroid hormone, in data set [1] (setting [4]), the Side effect result is given as “Hyperthyroidism caused”.
